{
  "source": "paper PMC5571211",
  "about": "(Scientific Reports, 2017)",
  "key": {"[1]": {"target": "T1, human recombinant 5-LOX (Homo sapiens, UniProt P09917)", "T1 construct": "made in house; host or cells: E. coli BL21", "T1 sequence (P09917 1-674)": "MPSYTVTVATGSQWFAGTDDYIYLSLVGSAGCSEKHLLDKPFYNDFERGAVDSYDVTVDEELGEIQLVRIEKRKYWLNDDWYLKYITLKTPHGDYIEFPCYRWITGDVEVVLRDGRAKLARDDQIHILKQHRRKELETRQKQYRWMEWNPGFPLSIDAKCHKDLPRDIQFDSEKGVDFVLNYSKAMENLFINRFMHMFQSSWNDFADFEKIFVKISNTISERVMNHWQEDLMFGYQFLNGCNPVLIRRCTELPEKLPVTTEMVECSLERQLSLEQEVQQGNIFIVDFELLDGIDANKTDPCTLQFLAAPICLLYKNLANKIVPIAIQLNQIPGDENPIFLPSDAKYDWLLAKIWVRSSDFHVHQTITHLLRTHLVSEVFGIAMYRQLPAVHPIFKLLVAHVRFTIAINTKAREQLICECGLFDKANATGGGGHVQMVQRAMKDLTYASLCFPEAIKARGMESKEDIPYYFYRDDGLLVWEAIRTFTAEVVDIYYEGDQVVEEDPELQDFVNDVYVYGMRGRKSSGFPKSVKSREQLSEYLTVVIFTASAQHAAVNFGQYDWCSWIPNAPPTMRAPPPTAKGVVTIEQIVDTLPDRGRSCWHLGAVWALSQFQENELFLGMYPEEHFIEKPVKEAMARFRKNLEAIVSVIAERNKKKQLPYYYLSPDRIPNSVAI", "assay": "Activity assay of isolated human recombinant 5-LOX (cell-free)", "type": "biochemical", "conditions": "cell-free assays, not further specified", "description": "To determine 5-LOX product formation, aliquots (0.5 µg purified 5-LOX in 1 mL PBS plus 1 mM EDTA) were pre-incubated with the test compounds or vehicle (0.1% DMSO) on ice for 15 min and then stimulated with 20 µM AA and CaCl2 (2 mM) for 10 min at 37 °C. The reaction was stopped with one volume of ice-cold methanol and 5-LOX products were analyzed by RP-HPLC as previously described[58]. Briefly, 530 µl acidified PBS and 200 ng of internal PGB1 standard were added and solid phase extraction using C18 RP-columns (100 mg, UCT, Bristol, PA, USA) was performed. After elution with methanol, samples were analyzed by RP-HPLC using a C-18 Radial-PAK column (Waters, Eschborn, Germany). Unless stated otherwise, 5-LOX products include all-trans-isomers of LTB4 and 5-HpETE as well as its corresponding alcohol 5-HETE."}, "[2]": {"target": "T2, 5-LOX/FLAP complex (Homo sapiens, UniProt P20292)", "T2 construct": "endogenous in cells; host or cells: freshly isolated human monocytes (immunofluorescence also in neutrophils)", "T2 sequence (P20292 1-161)": "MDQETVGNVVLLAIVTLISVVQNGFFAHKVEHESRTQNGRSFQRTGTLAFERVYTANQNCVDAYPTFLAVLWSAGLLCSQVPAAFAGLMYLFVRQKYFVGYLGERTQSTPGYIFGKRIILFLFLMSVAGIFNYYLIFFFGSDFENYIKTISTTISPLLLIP", "assay": "Proximity ligation assay of 5-LOX/FLAP complex assembly in monocytes", "type": "cell-based", "conditions": "diflapolin 1 µM, MK886 0.3 µM, zileuton 3 µM", "experimental": "In situ protein interaction of 5-LOX and FLAP was analyzed by proximity ligation assay as described before[37] and referring to the manufacturer’s protocol. In brief, freshly isolated monocytes were treated as described for IF above. Overnight incubations with primary antibodies were then treated for 1 h (37 °C) with oligonucleotide-labeled specific secondary antibodies (PLA probes anti-mouse MINUS and anti-rabbit PLUS). Formation of circled DNA sequences was induced by addition of ligase and oligonucleotide mixture (30 min at 37 °C). Rolling-circle-amplification of newly generated DNA template was performed (90 min, 37 °C) including hybridization of fluorescently-labeled oligonucleotides within the formed DNA strands, resulting in visualization of protein-protein interactions recognized as magenta-stained dots. Nuclear DNA staining with DAPI and image acquisition was performed as described above. Overview images were obtained using a Plan Neofluar 40/1.30 Oil (DIC III) objective (Carl Zeiss)."}, "[3]": {"target": "T3, recombinant human COX-2 (Homo sapiens, UniProt P35354)", "T3 construct": "purchased Cayman Chemical (Biomol, Hamburg, Germany)", "T3 sequence (P35354 18-604)": "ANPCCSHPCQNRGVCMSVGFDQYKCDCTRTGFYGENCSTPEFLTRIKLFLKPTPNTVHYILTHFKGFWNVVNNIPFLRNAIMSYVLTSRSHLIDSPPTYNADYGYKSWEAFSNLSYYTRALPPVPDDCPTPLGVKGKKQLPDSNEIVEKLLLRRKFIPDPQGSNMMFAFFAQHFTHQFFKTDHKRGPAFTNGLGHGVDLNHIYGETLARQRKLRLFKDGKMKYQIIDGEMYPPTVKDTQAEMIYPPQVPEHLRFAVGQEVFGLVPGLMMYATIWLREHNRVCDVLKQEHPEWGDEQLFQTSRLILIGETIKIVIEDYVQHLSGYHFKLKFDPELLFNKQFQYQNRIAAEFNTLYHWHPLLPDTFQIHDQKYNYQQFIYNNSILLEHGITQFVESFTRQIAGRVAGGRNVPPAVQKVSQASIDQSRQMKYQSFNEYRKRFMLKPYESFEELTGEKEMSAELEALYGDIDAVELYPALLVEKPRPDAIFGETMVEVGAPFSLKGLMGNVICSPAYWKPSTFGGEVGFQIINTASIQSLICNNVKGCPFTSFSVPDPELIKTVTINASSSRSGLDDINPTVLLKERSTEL", "assay": "COX-2 activity, cell-free (12-HHT formation)", "type": "biochemical", "conditions": "10 µM", "experimental": "COX activity was assayed by using purified ovine COX-1 and recombinant human COX-2, respectively. Enzymes were diluted in Tris buffer (100 mM, pH 8) supplemented with glutathione (5 mM), EDTA (100 µM) and hemoglobin (5 µM) to a final concentration of 50 U/mL (COX-1) or 20 U/mL (COX-2) and pre-incubated with test compounds or vehicle (0.1% DMSO) for 5 min at RT. After 30 sec at 37 °C, reactions were started with 5 µM AA (COX-1) or 2 µM AA (COX-2) and stopped after 5 min at 37 °C by addition of one volume of ice-cold methanol. Solid phase extraction was performed as described above after addition of 200 ng of internal PGB1 standard and COX product formation was determined by analysis of 12-HHT formation as reported before."}, "[4]": {"test_system": "15-LOX", "assay": "15-LOX activity (15-HETE) in intact neutrophils", "type": "cell-based, human", "conditions": "A23187 and 20 µM AA, concentration-dependently elevated", "description": "In order to examine 5-LOX product formation in intact human neutrophils and monocytes, freshly isolated cells were resuspended in PBS buffer containing 0.1% glucose and 1 mM CaCl2 (PGC buffer) to a final cell density of 5 × 10^6 or 2 × 10^6, respectively. […] 5-LOX product formation was stopped by addition of one volume of ice-cold methanol, samples were subjected to solid phase extraction after addition of 200 ng PGB1 as internal standard and 5-LOX products were analyzed by RP-HPLC as described above."}, "[5]": {"test_system": "monocytes", "assay": "Acute cytotoxicity, MTT assay in monocytes", "type": "cell-based, human", "conditions": "24 or 48 hrs; diflapolin 10 µM, staurosporine 3 µM", "experimental": "Acute cytotoxicity of the compounds was determined using freshly isolated monocytes. Cells (0.2 × 10^6) per sample were seeded in 100 µL buffer on 96-well plates and treated with the test compounds and appropriate controls for 24 or 48 hrs (37 °C, 5% CO2). After addition of MTT (5 mg/mL) for 2 h (37 °C, 5% CO2), cells were lysed by SDS treatment (10%, pH 4.5) for 16–20 hrs and formazan formation was determined by measurement of absorbance at 570 nm."}},
  "data": [
    {"smiles": "CC(C)c1ccc2c(c1)c(SC(C)(C)C)c(CC(C)(C)C(=O)O)n2Cc1ccc(Cl)cc1", "note": "[MK886, 3-[1-(4-chlorobenzyl)-3-t-butyl-thio-5-isopropylindol-2-yl]-2,2 - dimethylpropanoic acid]", "values": [
      {"measurement": "IC50", "setting": "[1]", "value": "> 10", "unit": "µM"},
      {"measurement": "5-LOX/FLAP complex assembly (PLA)", "setting": "[2]", "value": "comparable effects"}
    ]},
    {"smiles": "Cc1cc(OCc2nc3ccccc3s2)ccc1NC(=O)Nc1ccc(Cl)c(Cl)c1", "note": "[diflapolin, N-[4-(benzothiazol-2-ylmethoxy)-2-methylphenyl]-N′-(3,4-dichlorophenyl)urea]", "values": [
      {"measurement": "inhibition of COX-2 activity", "setting": "[3]", "value": "did not significantly inhibit"},
      {"measurement": "15-HETE formation", "setting": "[4]", "value": "up to 200 % of the vehicle control"},
      {"measurement": "viability of monocytes, MTT assay", "setting": "[5]", "value": "did not affect the viability"}
    ]}
  ]
}
